According to patent US11926576B1, “4,4′-naphthalene-1,5-diylbis(diazene-2,1-diyl)dibenzene-1,2-diol as an antioxidant compound” (KING FAISAL UNIVERSITY, priority 2023, dated 2024):

Assay: DPPH radical scavenging antioxidant test
Format: biochemical
Conditions: 517 nm; for Inhibition (radical scavenging inhibition): compound 3 μM in ethanol, 0.2 mL DPPH (0.75 mM), 30 min incubation in the dark
Method: The antioxidant properties of the 4,4′-naphthalene-1,5-diylbis(diazene-2,1-diyl)dibenzene-1,2-diol were studied by adding 0.2 mL DPPH (0.75 mM)) to compound 4,4′-naphthalene-1,5-diylbis(diazene-2,1-diyl)dibenzene-1,2-diol (III) (3 μM) in ethanol. After 30 min of incubation in the dark, the absorbance was read against a blank at 517 nm. Ascorbic acid (vitamin C) was used as standard antioxidants (positive control). A blank sample was prepared by 0.2 ml of DPPH in 3 ml ethanol. A negative control sample was run using ethanol instead of the sample. The radical scavenging inhibition was calculated using the following equation: […]

Oc1ccc(/N=N/c2cccc3c(/N=N/c4ccc(O)c(O)c4)cccc23)cc1O [Product III, 4,4′-naphthalene-1,5-diylbis(diazene-2,1-diyl)dibenzene-1,2-diol]
antioxidant potential (DPPH) compared to vitamin C (DPPH in vitro test, vitamin C as positive control): high potential as an antioxidant compared to vitamin C | Inhibition (radical scavenging inhibition): 50%

O=C1O[C@H]([C@@H](O)CO)C(O)=C1O [vit c, Ascorbic acid, reference compound]
Inhibition (radical scavenging inhibition): 74%
